This assay has as its target T1, Human complement C1s enzyme (Homo sapiens, UniProt P09871).
T1 construct: purified from human serum, Complement Technology, Inc; purchased Complement Technology, Inc; host or cells: human serum (plasma-derived natural protein)
T1 sequence (P09871 438-688 limits assumed): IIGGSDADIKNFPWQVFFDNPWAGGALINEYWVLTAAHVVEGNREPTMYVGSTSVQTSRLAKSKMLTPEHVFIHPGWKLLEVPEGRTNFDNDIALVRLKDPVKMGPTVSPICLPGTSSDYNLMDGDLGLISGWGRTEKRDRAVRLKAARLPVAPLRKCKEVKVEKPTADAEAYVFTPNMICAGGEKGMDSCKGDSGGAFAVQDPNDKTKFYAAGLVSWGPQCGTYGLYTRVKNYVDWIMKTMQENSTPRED
T1 sequence (P09871 16-437 partner limits assumed): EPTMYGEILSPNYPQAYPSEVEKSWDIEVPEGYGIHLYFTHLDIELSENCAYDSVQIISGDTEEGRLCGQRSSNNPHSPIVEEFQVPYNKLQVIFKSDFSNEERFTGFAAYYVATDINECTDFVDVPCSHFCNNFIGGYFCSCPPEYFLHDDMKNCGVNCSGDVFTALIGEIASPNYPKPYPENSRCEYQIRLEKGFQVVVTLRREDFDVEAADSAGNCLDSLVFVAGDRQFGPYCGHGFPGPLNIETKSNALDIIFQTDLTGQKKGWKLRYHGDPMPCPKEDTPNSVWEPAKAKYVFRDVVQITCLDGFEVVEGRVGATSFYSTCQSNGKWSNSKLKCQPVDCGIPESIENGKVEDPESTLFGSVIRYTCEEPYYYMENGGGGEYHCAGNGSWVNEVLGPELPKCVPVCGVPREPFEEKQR
The assay is described as follows: Human C1s Enzyme Assay. In kind it is biochemical. Conditions: C1s purified from human serum, 1.16 nM, substrate Z-L-Lys-SBzl, read-out: C1s Protease Activity. In a few lines:
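Serum-purified human C1s (1.16 nM) preincubated 5 min at RT with compound in 50 mM Tris, 1 M NaCl, pH 7.5. Z-L-Lys-SBzl and DTNB (100 μM each) then added; A405 followed every 30 s for 30 min. IC50 from nonlinear regression of reaction rates versus compound concentration.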

The structures appear in SMILES notation. pIC50: −log10 of the molar value. Like-named read-outs stand apart in the source and are kept apart here.

Take `Cc1cc(C(=O)NCC(=O)N2[C@H]3C[C@@]3(C)C[C@H]2C(=O)NCc2cc(C(=N)N)cs2)ccc1Oc1ccccc1` [Compound 48, (1S,3S,5S)-N-((4-carbamimidoylthiophen-2-yl)methyl)-5-methyl-2-((3-methyl-4-phenoxybenzoyl)glycyl)-2-azabicyclo[3.1.0]hexane-3-carboxamide]: the pIC50 (Table 2) is > 7.00.
As to `Cc1ccccc1O[C@H]1C[C@@H](C(=O)NCc2cc(C(=N)N)cs2)N(C(=O)CNC(=O)c2ccc(Oc3ccccc3)cc2)C1` [Compound 105, (2S,4S)-N-((4-carbamimidoylthiophen-2-yl)methyl)-1-((4-phenoxybenzoyl)glycyl)-4-(o-tolyloxy)pyrrolidine-2-carboxamide], the pIC50 (Table 3) was > 7.00.
In the case of `N=C(N)c1csc(CNC(=O)[C@@H]2CCCN2C(=O)CNC(=O)CCCOc2ccccc2)c1` [Compound 67, (S)-N-((4-carbamimidoylthiophen-2-yl)methyl)-1-((4-phenoxybutanoyl)glycyl)pyrrolidine-2-carboxamide], where the note is “Table 2”, the pIC50 was > 7.00.
Turning to `N=C(N)c1csc(CNC(=O)[C@@H]2CC3(CN2C(=O)CNC(=O)c2ccc(Oc4ccccc4)cc2)OCCO3)c1` [Compound 2, (8S)—N-[(4-carbamimidoylthiophen-2-yl)methyl]-7-{2-[(4-phenoxyphenyl)formamido]acetyl}-1,4-dioxa-7-azaspiro[4.4]nonane-8-carboxamide], the pIC50 (Table 1) is > 7.00.
`CC(C)(c1ccccc1)c1ccc(C(=O)NCC(=O)N2CCC[C@H]2C(=O)NCc2cc(C(=N)N)cs2)cc1` [Compound 57, (S)-N-((4-carbamimidoylthiophen-2-yl)methyl)-1-((4-(2-phenylpropan-2-yl)benzoyl)glycyl)pyrrolidine-2-carboxamide]: the pIC50 (Table 2) was > 7.00.
Same read-out and setting: then `N=C(N)c1csc(CNC(=O)[C@@H]2CCCN2C(=O)CCC(=O)c2ccc(Oc3ccccc3)cc2)c1` [Compound 52, (S)-N-((4-carbamimidoylthiophen-2-yl)methyl)-1-(4-oxo-4-(4-phenoxyphenyl)butanoyl)pyrrolidine-2-carboxamide], with > 7.00.
As to `N=C(N)c1csc(CNC(=O)[C@H]2CCCN2C(=O)CNC(=O)c2ccc(Oc3ccccc3)cc2)c1` [Compound 5, (2R)—N-[(4-Carbamimidoylthiophen-2-yl)methyl]-1-{2-[(4-phenoxyphenyl)-formamido]acetyl}pyrrolidine-2-carboxamide], under “Table 1”, the pIC50 is < 6.00.
Consider `N=C(N)CCCNC(=O)[C@@H]1CCCN1C(=O)CNC(=O)c1ccc(Oc2ccccc2)cc1` [Compound 28, (S)-N-(4-amino-4-iminobutyl)-1-((4-phenoxybenzoyl)glycyl)pyrrolidine-2-carboxamide], for which the pIC50 (Table 1) was < 6.00.
As to `CCCCOc1ccc(C(=O)NCC(=O)N2CCC[C@H]2C(=O)NCc2cc(C(=N)N)cs2)cc1` [Compound 78, (S)-1-((4-butoxybenzoyl)glycyl)-N-((4-carbamimidoylthiophen-2-yl)methyl)pyrrolidine-2-carboxamide], the pIC50 (Table 2) was > 7.00.
Turning to `CO[C@@H]1C[C@H](C(=O)NCc2cc(C(=N)N)cs2)[C@H](C(=O)CNC(=O)c2ccc(Oc3ccccc3)cc2)C1` [Compound 61, N-(2-((1R,2S,4S)-2-(((4-carbamimidoylthiophen-2-yl)methyl)carbamoyl)-4-methoxycyclopentyl)-2-oxoethyl)-4-phenoxybenzamide], the pIC50 (Table 2) is < 6.00.
Take `N=C(N)c1csc(CNC(=O)[C@@H]2CCCN2C(=O)CNC(=O)CCCCCc2ccccc2)c1` [Compound 81, (S)-N-((4-carbamimidoylthiophen-2-yl)methyl)-1-((6-phenylhexanoyl)glycyl)pyrrolidine-2-carboxamide]: the pIC50 (Table 2) is > 7.00.
On to `N=C(N)c1csc(CNC(=O)[C@@H]2CC3(CCCCC3)CN2C(=O)CNC(=O)c2ccc(Oc3ccccc3)cc2)c1` [Compound 13, (3S)—N-[(4-Carbamimidoylthiophen-2-yl)methyl]-2-{2-[(4-phenoxyphenyl)formamido]acetyl}-2-azaspiro[4.5]decane-3-carboxamide], for which the pIC50 (Table 1) is < 6.00.
As to `CCCCc1ccc(C(=O)NCC(=O)N2CCC[C@H]2C(=O)NCc2cc(C(=N)N)cs2)cc1` [Compound 73, (S)-1-((4-butylbenzoyl)glycyl)-N-((4-carbamimidoylthiophen-2-yl)methyl)pyrrolidine-2-carboxamide], the pIC50 (Table 2) was > 7.00.
`N=C(N)c1csc(CNC(=O)[C@@H]2C[C@](F)(CF)CN2C(=O)CNC(=O)c2ccc(Oc3ccccc3)cc2)c1` [Compound 106, (2S,4R)-N-((4-carbamimidoylthiophen-2-yl)methyl)-4-fluoro-4-(fluoromethyl)-1-((4-phenoxybenzoyl)glycyl)pyrrolidine-2-carboxamide]: under “Table 3”, the pIC50 is > 7.00.
Regarding `Cc1cc(C(=O)NCC(=O)N2CC3(C[C@H]2C(=O)NCc2cc4c(N)nccc4s2)OCCO3)ccc1Oc1ccccc1` [Compound 64, (S)-N-((4-aminothieno[3,2-c]pyridin-2-yl)methyl)-7-((3-methyl-4-phenoxybenzoyl)glycyl)-1,4-dioxa-7-azaspiro[4.4]nonane-8-carboxamide], under “Table 2”, the pIC50 was 6.00 to 7.00.
In the case of `CC(c1ccccc1)c1ccc(C(=O)NCC(=O)N2CCC[C@H]2C(=O)NCc2cc(C(=N)N)cs2)cc1` (stereo partly drawn) [Compound 58, (2S)-N-((4-carbamimidoylthiophen-2-yl)methyl)-1-((4-(1-phenylethyl)benzoyl)glycyl)pyrrolidine-2-carboxamide], the pIC50 (Table 2) is > 7.00.
`N=C(N)c1csc(CNC(=O)C2C3CCC(C3)N2C(=O)CNC(=O)c2ccc(Oc3ccccc3)cc2)c1` (stereo in doubt) [Compound 96, (1R,3R,4S)-N-((4-carbamimidoylthiophen-2-yl)methyl)-2-((4-phenoxybenzoyl)glycyl)-2-azabicyclo[2.2.1]heptane-3-carboxamide]: the pIC50 (Table 3) was > 7.00.
Turning to `Cc1cc(C(=O)NCC(=O)N2CC3(C[C@H]2C(=O)NCc2nc(C(=N)N)co2)OCCO3)ccc1Oc1ccccc1` [Compound 51, (S)-N-((4-carbamimidoyloxazol-2-yl)methyl)-7-((3-methyl-4-phenoxybenzoyl)glycyl)-1,4-dioxa-7-azaspiro[4.4]nonane-8-carboxamide], the pIC50 (Table 2) is > 7.00.
Consider `CCOc1ccc(C(=O)NCC(=O)N2CCC[C@H]2C(=O)NCc2cc(C(=N)N)cs2)cc1` [Compound 76, (S)-N-((4-carbamimidoylthiophen-2-yl)methyl)-1-((4-ethoxybenzoyl)glycyl)pyrrolidine-2-carboxamide], for which the pIC50 (Table 2) is 6.00 to 7.00.
In the case of `N=C(N)c1csc(CNC(=O)[C@@H]2C[C@@H](C(F)(F)F)CN2C(=O)CNC(=O)c2ccc(Oc3ccccc3)cc2)c1` [Compound 98, (2S,4R)-N-((4-carbamimidoylthiophen-2-yl)methyl)-1-((4-phenoxybenzoyl)glycyl)-4-(trifluoromethyl)pyrrolidine-2-carboxamide], where the note is “Table 3”, the pIC50 was > 7.00.
In the case of `N=C(N)c1csc(CNC(=O)[C@@H]2C[C@@H](c3ccccc3)CN2C(=O)CNC(=O)c2ccc(Oc3ccccc3)cc2)c1` [Compound 97, (2S,4S)-N-((4-carbamimidoylthiophen-2-yl)methyl)-1-((4-phenoxybenzoyl)glycyl)-4-phenylpyrrolidine-2-carboxamide], the pIC50 (Table 3) is > 7.00.
Take `C[C@@]12C[C@@H]1N(C(=O)CNC(=O)c1ccc(Oc3ccccc3)cc1)[C@H](C(=O)NCc1ccc(C(=N)N)s1)C2` [Compound 107, (1S,3S,5S)-N-((5-carbamimidoylthiophen-2-yl)methyl)-5-methyl-2-((4-phenoxybenzoyl)glycyl)-2-azabicyclo[3.1.0]hexane-3-carboxamide]: the pIC50 (Table 3) is > 7.00.
Consider `N=C(N)c1ccc(CNC(=O)[C@@H]2CC3(CN2C(=O)CNC(=O)c2ccc(Oc4ccccc4)cc2)OCCO3)cc1` [Compound 19, (8S)—N-[(4-Carbamimidoylphenyl)methyl]-7-{2-[(4-phenoxyphenyl)formamido]acetyl}-1,4-dioxa-7-azaspiro[4.4]nonane-8-carboxamide], for which the pIC50 (Table 1) was > 7.00.
Consider `N=C(N)c1csc(CNC(=O)C2CC3(CCC3)CN2C(=O)CNC(=O)c2ccc(Oc3ccccc3)cc2)c1` (stereo not shown) [Compound 11, N-[(4-Carbamimidoylthiophen-2-yl)methyl]-6-{2-[(4-phenoxyphenyl)formamido]acetyl}-6-azaspiro[3.4]octane-7-carboxamide], for which the pIC50 (Table 1) is > 7.00.
As to `N=C(N)c1csc(CNC(=O)C2N(C(=O)CNC(=O)c3ccc(Oc4ccccc4)cc3)CC23CCC3)c1` (stereo not shown) [Compound 7, N-[(4-Carbamimidoylthiophen-2-yl)methyl]-2-{2-[(4-phenoxyphenyl)formamido]acetyl}-2-azaspiro[3.3]heptane-1-carboxamide], the pIC50 (Table 1) is > 7.00.

(Values after US12479856B2, “Pharmaceutical compounds for the treatment of complement mediated disorders” (Achillion Pharmaceuticals, Inc., priority 2019, dated 2025).)
